# Target: T1, Glucocorticoid Receptor (GR) (Homo sapiens, UniProt P04150)
# T1 construct: purchased Invitrogen P2893
# T1 sequence (P04150 1-777): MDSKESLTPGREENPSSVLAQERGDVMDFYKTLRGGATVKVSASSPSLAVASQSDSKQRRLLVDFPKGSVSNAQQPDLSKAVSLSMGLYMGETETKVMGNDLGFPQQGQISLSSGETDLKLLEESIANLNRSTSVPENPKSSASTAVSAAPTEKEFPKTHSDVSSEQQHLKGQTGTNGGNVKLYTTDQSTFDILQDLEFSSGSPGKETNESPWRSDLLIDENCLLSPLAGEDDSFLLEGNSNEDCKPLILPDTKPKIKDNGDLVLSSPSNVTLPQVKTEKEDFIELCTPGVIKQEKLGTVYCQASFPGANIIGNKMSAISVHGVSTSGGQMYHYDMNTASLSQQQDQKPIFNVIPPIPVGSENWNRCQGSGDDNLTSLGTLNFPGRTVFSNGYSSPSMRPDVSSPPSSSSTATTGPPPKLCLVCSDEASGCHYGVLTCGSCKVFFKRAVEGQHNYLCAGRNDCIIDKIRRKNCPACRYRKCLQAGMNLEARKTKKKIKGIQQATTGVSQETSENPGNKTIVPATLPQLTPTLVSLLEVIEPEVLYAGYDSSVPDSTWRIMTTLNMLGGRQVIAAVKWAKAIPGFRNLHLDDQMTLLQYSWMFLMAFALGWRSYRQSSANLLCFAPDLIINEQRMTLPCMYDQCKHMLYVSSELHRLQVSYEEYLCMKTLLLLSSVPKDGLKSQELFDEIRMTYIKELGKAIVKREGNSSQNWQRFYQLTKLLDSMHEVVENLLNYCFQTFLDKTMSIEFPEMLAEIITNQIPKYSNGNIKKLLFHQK
# Experiment: GR Florescence Polarization Assay (PolarScreen Glucocorticoid Receptor Competitor Assay, Red)
# Conditions: Fluorescense polarization binding ranges; competition with fluorescent glucocorticoid, incubated overnight at 4° C.
# In short: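 Competitive fluorescence polarization using fluorescent glucocorticoid tracer and human GR in kit buffer. Compounds serially diluted 1:4 in DMSO, incubated with tracer and GR overnight at 4 °C before polarization read.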
row,SMILES,IC50 [nM]
1,"Cc1ncccc1NC(=O)c1ccc2c(c1)C(=O)NC[C@H]1CC(O)(C(F)(F)F)CC[C@@]21Cc1ccccc1 (stereo partly drawn) [Example 22, (4aS,11bS)-11b-benzyl-3-hydroxy-N-(2-methylpyridin-3-yl)-7-oxo-3-(trifluoromethyl)-2,3,4,4a,5,6,7,11b-octahydro-1H-dibenzo[c,e]azepine-9-carboxamide]",> 10000
2,"Cc1ncccc1NC(=O)c1ccc2c(c1)CN(C)C[C@H]1CC(=O)CC[C@@]21Cc1ccccc1 [Example 108, (4aS,11bS)-11b-Benzyl-6-methyl-N-(2-methylpyridin-3-yl)-3-oxo-2,3,4,4a,5,6,7,11b-octahydro-1H-dibenzo[c,e]azepine-9-carboxamide]",1000 to 10000
3,CC[C@]1(O)CC[C@]2(CC)c3ccc(C(=O)Nc4cccnc4C)cc3CCC[C@@H]2C1 [Example 46],100 to 1000
4,"CC[C@@]1(O)CC[C@@]2(Cc3ccccc3)c3ccc(C(=O)Nc4ccc(-c5ccn[nH]5)nc4C)cc3CCC[C@H]2C1 [Example 87, (7aS,9R,11aS)-11a-Benzyl-9-ethyl-9-hydroxy-6,7,7a,8,9,10,11,11a-octahydro-5H-dibenzo[a,c]cycloheptene-3-carboxylic acid [2-methyl-6-(2H-pyrazol-3-yl)-pyridin-3-yl]-amide]",< 100
5,"CCC[C@]1(O)CC[C@]2(CC)c3ccc(C(=O)Nc4cccnc4C)cc3CCC[C@@H]2C1 (single isomer, unassigned) [Example 44]",100 to 1000
6,"Cc1ncccc1NC(=O)c1ccc2c(c1)NC(=O)C[C@@H]1C[C@@](O)(C(F)(F)F)CC[C@@]21Cc1ccccc1 [Example 20, (7aS,9R,11aS)-11a-Benzyl-9-hydroxy-N-(2-methylpyridin-3-yl)-6-oxo-9-(trifluoromethyl)-6,7,7a,8,9,10,11,11a-octahydro-5H-dibenzo[b,d]azepine-3-carboxamide]",100 to 1000
7,"Cc1ncccc1NC(=O)c1ccc2c(c1)CN(C)C[C@@H]1C[C@@](O)(C(F)(F)F)CC[C@@]21Cc1ccccc1 [Example 117, (3R,4aR,11bS)-11b-Benzyl-3-hydroxy-6-methyl-N-(2-methylpyridin-3-yl)-3-(trifluoromethyl)-2,3,4,4a,5,6,7,11b-octahydro-1H-dibenzo[c,e]azepine-9-carboxamide]",100 to 1000
8,"CC[C@@]1(O)CC[C@@]2(Cc3ccccc3)c3ccc(C(=O)Nc4cccnc4C)cc3C(=O)CC[C@H]2C1 (single isomer, unassigned) [Example 24]",< 100
9,Cc1ncccc1NC(=O)c1ccc2c(c1)CCC[C@H]1C[C@@](O)(COCCS(C)(=O)=O)CC[C@@]21Cc1ccccc1 (racemic) [Example 105],< 100
10,CCC[C@@]12CC[C@@](O)(Cc3ccccc3)C[C@@H]1CCCc1cc(C(=O)Nc3cccnc3C)ccc12.CCC[C@]12CC[C@](O)(Cc3ccccc3)C[C@H]1CCCc1cc(C(=O)Nc3cccnc3C)ccc12 [Example 35],1000 to 10000
11,CC[C@]12CC[C@@](O)(CC3CC3)C[C@H]1CCCc1cc(C(=O)Nc3cccnc3C)ccc12 [Example 50],100 to 1000
12,"CC[C@@]1(O)CC[C@@]2(Cc3ccccc3)c3ccc(-c4nc5ccccc5[nH]4)cc3CCC[C@H]2C1 [Example 127, (3R,4aS,11bS)-9-(1H-benzoimidazol-2-yl)-11b-benzyl-3-ethyl-2,3,4,4a,5,6,7,11b-octahydro-1H-dibenzo[a,c]cyclohepten-3-ol]",100 to 1000
13,CC[C@]12CC[C@@](O)(CC(C)C)C[C@H]1CCCc1cc(C(=O)Nc3cccnc3C)ccc12 [Example 48],100 to 1000
14,"Cc1ncccc1NC(=O)c1ccc2c(c1)C(=O)OC[C@@H]1C[C@@](O)(C(F)(F)F)CC[C@@]21Cc1ccccc1 [Example 115, (7aR,9R,11aS)-11a-Benzyl-9-hydroxy-N-(2-methylpyridin-3-yl)-5-oxo-9-(trifluoromethyl)-5,7,7a,8,9,10,11,11a-octahydrodibenzo[c,e]oxepine-3-carboxamide]",100 to 1000
15,"CC[C@]12C[C@H](O)[C@@](O)(c3ccccc3)C[C@H]1CCCc1cc(C(=O)Nc3cccnc3C)ccc12 (single isomer, unassigned) [Example 125]",< 100

# Further lines, results first:
row,IC50 [nM],SMILES
1,< 100,"CCC[C@@]12CC[C@](O)(CC)C[C@@H]1CCCc1cc(C(=O)Nc3cccnc3C)ccc12.CCC[C@]12CC[C@@](O)(CC)C[C@H]1CCCc1cc(C(=O)Nc3cccnc3C)ccc12 [Example 26, (7aR,9S,11aS)-9-Ethyl-9-hydroxy-11a-propyl-6,7,7a,8,9,10,11,11a-octahydro-5H-dibenzo[a,c]cycloheptene-3-carboxylic acid (2-methyl-pyridin-3-yl)-amide; compound with (7aS,9R,11aR)-9-ethyl-9-hydroxy-11a-propyl-6,7,7a,8,9,10,11,11a-octahydro-5H-dibenzo[a,c]cycloheptene-3-carboxylic acid (2-methyl-pyridin-3-yl)-amide]"
2,< 100,"CC[C@@]12CC[C@@](C)(O)C[C@@H]1CCCc1cc(C(=O)Nc3cccnc3C)ccc12 (single isomer, unassigned) [Example 60]"
3,< 100,"CC[C@@]1(O)CC[C@@]2(Cc3ccccc3)c3ccc(C(=O)Nc4cccnc4C)cc3CCC[C@H]2C1 (single isomer, unassigned) [Example 14]"
4,< 100,Cc1ncccc1NC(=O)c1ccc2c(c1)CCC[C@H]1C[C@@](O)(CC#N)CC[C@@]21Cc1ccccc1 [Example 66]
5,< 100,"Cc1ncccc1NC(=O)c1ccc2c(c1)CCCC1=C[C@](C)(O)CC[C@]12Cc1ccccc1 (racemic) [Example 19, (9R,11aS)-11a-Benzyl-9-hydroxy-9-methyl-6,7,9,10,11,11a-hexahydro-5H-dibenzo[a,c]cycloheptene-3-carboxylic acid (2-methyl-pyridin-3-yl)-amide; compound with (9S,11aR)-11a-benzyl-9-hydroxy-9-methyl-6,7,9,10,11,11a-hexahydro-5H-dibenzo[a,c]cycloheptene-3-carboxylic acid (2-methyl-pyridin-3-yl)-amide]"
6,< 100,"CCC[C@@]1(O)CC[C@@]2(CC)c3ccc(C(=O)Nc4ccccc4Cl)cc3CCC[C@H]2C1 [Example 151, (7aS,9R,11aR)-11a-Ethyl-9-hydroxy-9-propyl-6,7,7a,8,9,10,11,11a-octahydro-5H-dibenzo[a,c]cycloheptene-3-carboxylic acid (2-chloro-phenyl)-amide]"
7,< 100,Cc1ncccc1NC(=O)c1ccc2c(c1)CCC[C@H]1C[C@@](O)(COc3ccccc3)CC[C@@]21Cc1ccccc1 (racemic) [Example 103]
8,< 100,"CCC[C@@]12CC[C@](O)(Cc3ccccc3)C[C@@H]1CCCc1cc(C(=O)Nc3cccnc3C)ccc12.CCC[C@]12CC[C@@](O)(Cc3ccccc3)C[C@H]1CCCc1cc(C(=O)Nc3cccnc3C)ccc12 [Example 34, (7aS,9R,11aR)-9-Benzyl-9-hydroxy-11a-propyl-6,7,7a,8,9,10,11,11a-octahydro-5H-dibenzo[a,c]cycloheptene-3-carboxylic acid (2-methyl-pyridin-3-yl)-amide; compound with (7aR,9S,11aS)-9-benzyl-9-hydroxy-11a-propyl-6,7,7a,8,9,10,11,11a-octahydro-5H-dibenzo[a,c]cycloheptene-3-carboxylic acid (2-methyl-pyridin-3-yl)-amide]"
9,< 100,"CC[C@@]1(O)CC[C@@]2(Cc3ccccc3)c3ccc(C(=O)Nc4ccccc4N)cc3CCC[C@H]2C1 [Example 126, (7aS,9R,11aS)-11a-Benzyl-9-ethyl-9-hydroxy-6,7,7a,8,9,10,11,11a-octahydro-5H-dibenzo[a,c]cycloheptene-3-carboxylic acid (2-amino-phenyl)-amide]"
10,< 100,"CCC[C@@]1(O)CC[C@@]2(CC)c3ccc(C(=O)Nc4cccnc4C)cc3C=CC[C@H]2C1 (racemic) [Example 128, (7aS,9R,11aR)-11a-Ethyl-9-hydroxy-9-propyl-7a,8,9,10,11,11a-hexahydro-7H-dibenzo[a,c]cycloheptene-3-carboxylic acid (2-methyl-pyridin-3-yl)-amide compound with (7aR,9S,11aS)-11a-ethyl-9-hydroxy-9-propyl-7a,8,9,10,11,11a-hexahydro-7H-dibenzo[a,c]cycloheptene-3-carboxylic acid (2-methyl-pyridin-3-yl)-amide]"
11,< 100,CC[C@@]1(O)CC[C@@]2(Cc3ccccc3)c3ccc(C(=O)Nc4cc(C)[nH]n4)cc3CCC[C@H]2C1 [Example 79]
12,< 100,"Cc1ncccc1NC(=O)c1ccc2c(c1)CCC[C@@H]1C[C@](C)(O)CC[C@@]21Cc1ccccc1 (single isomer, unassigned) [Example 90]"
13,< 100,"CC[C@@]1(O)CC[C@@]2(Cc3ccccc3)c3ccc(C(=O)Nc4ccc(N)cc4)cc3CCC[C@H]2C1 [Example 143, (7aS,9R,11aS)-11a-Benzyl-9-ethyl-9-hydroxy-6,7,7a,8,9,10,11,11a-octahydro-5H-dibenzo[a,c]cycloheptene-3-carboxylic acid (4-amino-phenyl)-amide]"
